Columns and labels:
Details in all cases: incubation time: 72 h
BT-474 [1] = assay: normalised response (% of control), CellTiter-Glo; higher = more viable cells (100 = DMSO, 0 = benzethonium chloride kill control)
In short: (§1)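 Each value is the plate-normalised signal at one concentration of the series. Breast cancer cell lines (20 µl suspension) were incubated 72 h in 384-well plates with compound at 5 concentrations in 10-fold steps over a compound-specific 10,000-fold range. CellTox Green and then CellTiter-Glo were read, and each plate was scaled to 0.1 % DMSO (100) and a positive kill control (0).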

BT-549 [2] = assay: as above
In short: as §1

CAL-120 [3] = assay: as above
In short: as §1

CAL-148 [4] = assay: as above
In short: as §1

CAL-51 [5] = assay: as above
In short: as §1

CAL-85-1 [6] = assay: as above
In short: as §1

DU-4475 [7] = assay: as above
In short: as §1

HCC1143 [8] = assay: as above
In short: as §1

HCC1599 [9] = assay: as above
In short: as §1

HCC1937 [10] = assay: as above
In short: as §1

HDQ-P1 [11] = assay: as above
In short: as §1

Hs578T [12] = assay: as above
In short: as §1

MCF-10A = assay: as above
In short: as §1

MDA-MB-231 [13] = assay: as above
In short: as §1

MDA-MB-436 [14] = assay: as above
In short: as §1

MDA-MB-453 [15] = assay: as above
In short: as §1

MDA-MB-468 [16] = assay: as above
In short: as §1

MFM-223 [17] = assay: as above
In short: as §1

SK-BR-3 [18] = assay: as above
In short: as §1

BT-474 [19] = assay: normalised viability (% of control), CellTiter-Blue; higher = more viable cells (100 = DMSO, 0 = benzethonium chloride kill control)
Description: (§2)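 DSRT, CellTiter-Blue viability, 72 h incubation. Signal is normalised to DMSO and benzethonium chloride controls. Value is the normalised response at dose 1.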

BT-549 [20] = assay: as above
Description: as §2

CAL-120 [21] = assay: as above
Description: as §2

CAL-148 [22] = assay: as above
Description: as §2

CAL-51 [23] = assay: as above
Description: as §2

CAL-85-1 [24] = assay: as above
Description: as §2

DU-4475 [25] = assay: as above
Description: as §2

HCC1143 [26] = assay: as above
Description: as §2

HCC1599 [27] = assay: as above
Description: as §2

HCC1937 [28] = assay: as above
Description: as §2

HDQ-P1 [29] = assay: as above
Description: as §2

Hs578T [30] = assay: as above
Description: as §2

MDA-MB-231 [31] = assay: as above
Description: as §2

MDA-MB-436 [32] = assay: as above
Description: as §2

MDA-MB-453 [33] = assay: as above
Description: as §2

MDA-MB-468 [34] = assay: as above
Description: as §2

MFM-223 [35] = assay: as above
Description: as §2

SK-BR-3 [36] = assay: as above
Description: as §2

SMILES | normalised response (BT-474 [1]) [%] | normalised response (BT-549 [2]) [%] | normalised response (CAL-120 [3]) [%] | normalised response (CAL-148 [4]) [%] | normalised response (CAL-51 [5]) [%] | normalised response (CAL-85-1 [6]) [%] | normalised response (DU-4475 [7]) [%] | normalised response (HCC1143 [8]) [%] | normalised response (HCC1599 [9]) [%] | normalised response (HCC1937 [10]) [%] | normalised response (HDQ-P1 [11]) [%] | normalised response (Hs578T [12]) [%] | normalised response (MCF-10A) [%] | normalised response (MDA-MB-231 [13]) [%] | normalised response (MDA-MB-436 [14]) [%] | normalised response (MDA-MB-453 [15]) [%] | normalised response (MDA-MB-468 [16]) [%] | normalised response (MFM-223 [17]) [%] | normalised response (SK-BR-3 [18]) [%] | normalised viability (BT-474 [19]) [%] | normalised viability (BT-549 [20]) [%] | normalised viability (CAL-120 [21]) [%] | normalised viability (CAL-148 [22]) [%] | normalised viability (CAL-51 [23]) [%] | normalised viability (CAL-85-1 [24]) [%] | normalised viability (DU-4475 [25]) [%] | normalised viability (HCC1143 [26]) [%] | normalised viability (HCC1599 [27]) [%] | normalised viability (HCC1937 [28]) [%] | normalised viability (HDQ-P1 [29]) [%] | normalised viability (Hs578T [30]) [%] | normalised viability (MDA-MB-231 [31]) [%] | normalised viability (MDA-MB-436 [32]) [%] | normalised viability (MDA-MB-453 [33]) [%] | normalised viability (MDA-MB-468 [34]) [%] | normalised viability (MFM-223 [35]) [%] | normalised viability (SK-BR-3 [36]) [%]
Cc1c(N)nc([C@H](CC(N)=O)NC[C@H](N)C(N)=O)nc1C(=O)N[C@H](C(=O)N[C@H](C)[C@@H](O)[C@H](C)C(=O)N[C@H](C(=O)NCCc1nc(-c2nc(C(=O)NCCC[S+](C)C)cs2)cs1)[C@@H](C)O)[C@@H](OC1OC(CO)C(O)C(O)C1OC1OC(CO)C(O)C(OC(N)=O)C1O)c1cnc[nH]1 (some centres undefined) [Bleomycin] (1 nM) | 96.3 | 104 | 99 | 93.2 | 113 | 97.4 | 97.1 | 96.4 | 90.8 | 98 | 96.4 | 97.3 | 93.2 | 92.3 | 102 | 105 | 95.5 | 96.5 | 103 | 84.4 | 97.3 | 89.3 | 112 | 94.5 | 97.8 | 116 | 92.5 | 126 | 92.7 | 91.5 | 98.8 | 86.7 | 121 | 91.7 | 85.4 | 102 | 83.4
Cc1cc2c(F)c(Oc3ncnn4cc(OC[C@@H](C)O)c(C)c34)ccc2[nH]1 [Brivanib] (0.1 nM) | 104 | 100 | 101 | 106 | 114 | 101 | 104 | 104 | 111 | 101 | 97.9 | 104 | 108 | 107 | 101 | 104 | 113 | 105 | 111 | 93.5 | 109 | 78.7 | 107 | 93.4 | 86.7 | 109 | 101 | 96 | 82.1 | 84.9 | 112 | 99.5 | 114 | 104 | 104 | 96.5 | 98
CC(C)C[C@H](NC(=O)[C@H](CCc1ccccc1)NC(=O)CN1CCOCC1)C(=O)N[C@@H](Cc1ccccc1)C(=O)N[C@@H](CC(C)C)C(=O)[C@@]1(C)CO1 [Carfilzomib] (0.1 nM) | 108 | 97.3 | 103 | 109 | 124 | 105 | 103 | 104 | 120 | 105 | 110 | 100 | 106 | 107 | 105 | 108 | 109 | 104 | 105 | 116 | 105 | 89.8 | 99.9 | 110 | 95.5 | 107 | 100 | 100 | 84.8 | 95.6 | 100 | 132 | 101 | 96.9 | 100 | 83.4 | 99.7
Nc1nc(Cl)nc2c1ncn2[C@@H]1O[C@H](CO)[C@@H](O)[C@@H]1F [Clofarabine] (1 nM) | 101 | 94.8 | 101 | 90.5 | 79.9 | 97.4 | 99 | 96.7 | 90 | 98.1 | 98.3 | 103 | 107 | 101 | 97.4 | 106 | 94.9 | 101 | 99.1 | 89.5 | 93.7 | 90.4 | 91 | 108 | 87 | 101 | 87.1 | 101 | 93.7 | 118 | 116 | 90.3 | 100 | 107 | 111 | 93 | 91
CCN(CC)CCOc1ccc(C(=C(Cl)c2ccccc2)c2ccccc2)cc1 [Clomifene] (1 nM) | 106 | 101 | 95.8 | 109 | 102 | 104 | 104 | 105 | 99.8 | 96.9 | 99.2 | 101 | 95.8 | 106 | 111 | 106 | 98.8 | 99.6 | 108 | 95.6 | 116 | 90.2 | 105 | 94.5 | 89 | 92.8 | 89.7 | 79.7 | 97.7 | 125 | 123 | 104 | 111 | 102 | 103 | 101 | 96.7
C[C@@H]1C[C@H]2[C@@H]3CCC4=CC(=O)C=C[C@]4(C)[C@@]3(F)[C@@H](O)C[C@]2(C)[C@@]1(O)C(=O)CO [Dexamethasone] (1 nM) | 107 | 102 | 94.3 | 89.2 | 116 | 102 | 100 | 96.2 | 100 | 98.9 | 104 | 107 | 90 | 112 | 115 | 102 | 94.6 | 94.7 | 95.6 | 119 | 157 | 82.3 | 109 | 95.6 | 107 | 96.6 | 91.8 | 84 | 82 | 92.9 | 93.5 | 126 | 85.8 | 94.3 | 106 | 91.6 | 111
CC(C)C(=O)Nc1ccc([N+](=O)[O-])c(C(F)(F)F)c1 [Flutamide] (1 nM) | 98.5 | 98.5 | 103 | 96.8 | 113 | 96.7 | 97 | 93.2 | 97.4 | 94.7 | 101 | 98.2 | 103 | 99 | 103 | 113 | 96 | 98.4 | 105 | 96.8 | 86.2 | 93.6 | 114 | 109 | 96.8 | 100 | 90.7 | 119 | 65.1 | 118 | 134 | 90.2 | 94.7 | 104 | 96.1 | 90.4 | 98.1

Reference: the supplement of paper PMC4862054
